Values quoted from earlier work as cited in US20240316057A1 (priority 2021, published 2024).

Experiments:
[1] = as known to the skilled person

Row | solubility in water | Structure (SMILES) | efficacious plasma concentration range [1] [µM]
1 | very slightly water-soluble | Cn1cnc2c1c(=O)[nH]c(=O)n2C [Theobromine, 3,7-dimethylxanthine] | 
2 |  | Cn1c(=O)c2c(ncn2C)n(C)c1=O [Caffeine, 1,3,7-trimethylxanthine] | 5 to 20
